Assay results published in patent US10172843B2, “Piperidine derivatives” (Hoffmann-La Roche Inc., priority 2014, dated 2019).
Where two headings read alike, the source gives them in different places.

Target: human Cat S (Homo sapiens (Human), UniProt P25774)
Experiment: Cathepsin enzyme inhibition assay (fluorogenic peptide substrate)
Assay type: biochemical
Conditions: read-out: CatS IC50
Method: Cathepsin Enzyme Inhibition Assay
Enzyme activity is measured by observing the increase in fluorescence intensity caused by cleavage of a peptide substrate containing a fluorophore whose emission is quenched in the intact peptide.
Assay buffer: 100 mM potassium phosphate pH 6.5, EDTA-Na 5 mM, Triton X-100 0.001%, DTT 5 mM.
Enzymes (all at 1 nM): human and mouse Cathepsin S, Cat K, Cat B, Cat L.
Substrate ([…], except for Cat K which uses Z-Leu-Arg-AMC (both from Bachem).
Excitation 360 nm, Emission 465 nm.
Enzyme is added to the substance dilutions in 96-well microtitre plates and the reaction is started with substrate. […] IC50 are calculated by standard methods.
Inhibition of human Cat S, mouse Cat S, human Cat K, mouse Cat K, human Cat B, mouse Cat B, human Cat L and mouse Cat L have been measured separately.

[1] = human Cat S, enzyme 1 nM, substrate Z-Val-Val-Arg-AMC, pH 6.5

Sequence of human Cat S (P25774 115-331): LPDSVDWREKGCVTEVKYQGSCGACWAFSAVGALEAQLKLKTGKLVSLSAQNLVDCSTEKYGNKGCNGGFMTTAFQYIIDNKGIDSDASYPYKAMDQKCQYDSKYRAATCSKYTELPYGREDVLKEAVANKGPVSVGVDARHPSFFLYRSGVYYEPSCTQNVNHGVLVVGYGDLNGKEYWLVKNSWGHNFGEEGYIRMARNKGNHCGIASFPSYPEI

Compound	IC50 [1]	IC50
Cc1[nH]c(-c2ccc(C(F)(F)F)c(Cl)c2)nc1CN1CCC(n2c(=O)n(C)c3ccccc32)CC1 [Example 39, 1-{1-[2-(3-Chloro-4-trifluoromethyl-phenyl)-5-methyl-1H-imidazol-4-ylmethyl]-piperidin-4-yl}-3-methyl-1,3-dihydro-benzoimidazol-2-one]	242 nM	–
Cc1[nH]c(-c2ccc(C(F)(F)F)c(Cl)c2)nc1CN1CCC(N2Cc3ccccc3NC2=O)CC1 [Example 40, 3-{1-[2-(3-Chloro-4-trifluoromethyl-phenyl)-5-methyl-1H-imidazol-4-ylmethyl]-piperidin-4-yl}-3,4-dihydro-1H-quinazolin-2-one]	77 nM	–
Cc1[nH]c(-c2ccc(Cl)c(Cl)c2)nc1CN1CCC(N2Cc3ccccc3NC2=O)CC1 [Example 42, 3-{1-[2-(3,4-Dichloro-phenyl)-5-methyl-1H-imidazol-4-ylmethyl]-piperidin-4-yl}-3,4-dihydro-1H-quinazolin-2-one]	287 nM	–
Cc1[nH]c(-c2ccc(C(F)(F)F)cc2)nc1CN1CCC(N2C(=O)Cc3cc(Cl)ccc32)CC1 [Example 43, 5-Chloro-1-{1-[5-methyl-2-(4-trifluoromethyl-phenyl)-1H-imidazol-4-ylmethyl]-piperidin-4-yl}-1,3-dihydro-indol-2-one]	–	445 nM
Cc1[nH]c(-c2ccc(C(F)(F)F)c(F)c2)nc1CN1CCC(n2c(=O)n(C)c3ccccc32)CC1 [Example 44, 1-{1-[2-(3-Fluoro-4-trifluoromethyl-phenyl)-5-methyl-1H-imidazol-4-ylmethyl]-piperidin-4-yl}-3-methyl-1,3-dihydro-benzoimidazol-2-one]	385 nM	–
Cc1[nH]c(-c2ccc(C(F)(F)F)c(Cl)c2)nc1CN1CCC(N2Cc3ccc(F)cc3NC2=O)CC1 [Example 45, 3-{1-[2-(3-Chloro-4-trifluoromethyl-phenyl)-5-methyl-1H-imidazol-4-ylmethyl]-piperidin-4-yl}-7-fluoro-3,4-dihydro-1H-quinazolin-2-one]	110 nM	–
Cc1[nH]c(-c2ccc(C(F)(F)F)c(Cl)c2)nc1CN1CCC(c2c[nH]c3ncccc23)CC1 [Example 46, 3-{1-[2-(3-Chloro-4-trifluoromethyl-phenyl)-5-methyl-1H-imidazol-4-ylmethyl]-piperidin-4-yl}-1H-pyrrolo[2,3-b]pyridine]	305 nM	–
Cc1[nH]c(-c2ccc(C(F)(F)F)c(F)c2)nc1CN1CCC(N2Cc3ccccc3NC2=O)CC1 [Example 47, 3-{1-[2-(3-Fluoro-4-trifluoromethyl-phenyl)-5-methyl-1H-imidazol-4-ylmethyl]-piperidin-4-yl}-3,4-dihydro-1H-quinazolin-2-one]	145 nM	–
Cc1[nH]c(-c2ccc(Cl)c(Cl)c2)nc1CN1CCC(N2Cc3ccc(F)cc3NC2=O)CC1 [Example 48, 3-{1-[2-(3,4-Dichloro-phenyl)-5-methyl-1H-imidazol-4-ylmethyl]-piperidin-4-yl}-7-fluoro-3,4-dihydro-1H-quinazolin-2-one]	450 nM	–
Cc1[nH]c(-c2ccc(Cl)c(Cl)c2)nc1CN1CCC(c2c[nH]c3ncccc23)CC1 [Example 49, 3-{1-[2-(3,4-Dichloro-phenyl)-5-methyl-1H-imidazol-4-ylmethyl]-piperidin-4-yl}-1H-pyrrolo[2,3-b]pyridine]	1200 nM	–
Cc1[nH]c(-c2ccc(Cl)c(F)c2)nc1CN1CCC(N2Cc3ccccc3NC2=O)CC1 [Example 50, 3-{1-[2-(4-Chloro-3-fluoro-phenyl)-5-methyl-1H-imidazol-4-ylmethyl]-piperidin-4-yl}-3,4-dihydro-1H-quinazolin-2-one]	605 nM	–
Cc1nn(-c2ccc(C(F)(F)F)cc2)cc1CN1CCC(N2Cc3ccccc3NC2=O)CC1 [Example 52, 3-{1-[3-Methyl-1-(4-trifluoromethyl-phenyl)-1H-pyrazol-4-ylmethyl]-piperidin-4-yl}-3,4-dihydro-1H-quinazolin-2-one]	1380 nM	–
Cc1[nH]c(-c2ccc(C(F)(F)F)cc2)nc1CN1CCC(N2Cc3ccccc3N(C)C2=O)CC1 [Example 53, 1-Methyl-3-{1-[5-methyl-2-(4-trifluoromethyl-phenyl)-1H-imidazol-4-ylmethyl]-piperidin-4-yl}-3,4-dihydro-1H-quinazolin-2-one]	145 nM	–
COCCN1C(=O)N(C2CCN(Cc3nc(-c4ccc(C(F)(F)F)cc4)[nH]c3C)CC2)Cc2ccccc21 [Example 54, 1-(2-Methoxy-ethyl)-3-{1-[5-methyl-2-(4-trifluoromethyl-phenyl)-1H-imidazol-4-ylmethyl]-piperidin-4-yl}-3,4-dihydro-1H-quinazolin-2-one]	135 nM	–
COCCc1[nH]c(-c2ccc(C(F)(F)F)cc2)nc1CN1CCC(N2Cc3ccccc3NC2=O)CC1 [Example 55, 3-{1-[5-(2-Methoxy-ethyl)-2-(4-trifluoromethyl-phenyl)-1H-imidazol-4-ylmethyl]-piperidin-4-yl}-3,4-dihydro-1H-quinazolin-2-one]	350 nM	–
O=C1Nc2ccccc2CN1C1CCN(Cc2nc(-c3ccc(C(F)(F)F)cc3)[nH]c2Cc2ccccc2)CC1 [Example 56, 3-{1-[5-Benzyl-2-(4-trifluoromethyl-phenyl)-1H-imidazol-4-ylmethyl]-piperidin-4-yl}-3,4-dihydro-1H-quinazolin-2-one]	225 nM	–
Cc1[nH]c(-c2ccc(Cl)cc2Cl)nc1CN1CCC(N2Cc3ccccc3NC2=O)CC1 [Example 57, 3-{1-[2-(2,4-Dichloro-phenyl)-5-methyl-1H-imidazol-4-ylmethyl]-piperidin-4-yl}-3,4-dihydro-1H-quinazolin-2-one]	995 nM	–
Cc1[nH]c(-c2ccc(C(F)(F)F)cc2Cl)nc1CN1CCC(N2Cc3ccccc3NC2=O)CC1 [Example 59, 3-{1-[2-(2-Chloro-4-trifluoromethyl-phenyl)-5-methyl-1H-imidazol-4-ylmethyl]-piperidin-4-yl}-3,4-dihydro-1H-quinazolin-2-one]	285 nM	–
Cc1[nH]c(-c2ccc(C(F)(F)F)cc2Cl)nc1CN1CCC(n2c(=O)n(C)c3ccccc32)CC1 [Example 60, 1-{1-[2-(2-Chloro-4-trifluoromethyl-phenyl)-5-methyl-1H-imidazol-4-ylmethyl]-piperidin-4-yl}-3-methyl-1,3-dihydro-benzoimidazol-2-one]	915 nM	–
COCCc1[nH]c(-c2ccc(C(F)(F)F)cc2)nc1CN1CCC(c2c[nH]c3ccncc23)CC1 [Example 61, 3-{1-[5-(2-Methoxy-ethyl)-2-(4-trifluoromethyl-phenyl)-1H-imidazol-4-ylmethyl]-piperidin-4-yl}-1H-pyrrolo[3,2-c]pyridine]	1940 nM	–
CCCc1[nH]c(-c2ccc(C(F)(F)F)cc2)nc1CN1CCC(N2Cc3ccccc3NC2=O)CC1 [Example 62, 3-{1-[5-Propyl-2-(4-trifluoromethyl-phenyl)-1H-imidazol-4-ylmethyl]-piperidin-4-yl}-3,4-dihydro-1H-quinazolin-2-one]	300 nM	–
Cc1[nH]c(-c2ccc(C(F)(F)F)cc2)nc1CN1CCC(c2c[nH]c3ccncc23)CC1 [Example 63, 3-{1-[5-Methyl-2-(4-trifluoromethyl-phenyl)-1H-imidazol-4-ylmethyl]-piperidin-4-yl}-1H-pyrrolo[3,2-c]pyridine]	667 nM	–
CCCc1[nH]c(-c2ccc(C(F)(F)F)cc2)nc1CN1CCC(n2c(=O)n(C)c3ccccc32)CC1 [Example 64, 1-Methyl-3-{1-[5-propyl-2-(4-trifluoromethyl-phenyl)-1H-imidazol-4-ylmethyl]-piperidin-4-yl}-1,3-dihydro-benzoimidazol-2-one]	928 nM	–
Cn1nc(CN2CCC(N3Cc4ccccc4NC3=O)CC2)nc1-c1ccc(C(F)(F)F)cc1 [Example 66, 3-{1-[1-Methyl-5-(4-trifluoromethyl-phenyl)-1H-[1,2,4]triazol-3-ylmethyl]-piperidin-4-yl}-3,4-dihydro-1H-quinazolin-2-one]	450 nM	–
Cc1cn(-c2ccc(C(F)(F)F)cc2)nc1CN1CCC(N2Cc3ccccc3NC2=O)CC1 [Example 68, 3-{1-[4-Methyl-1-(4-trifluoromethyl-phenyl)-1H-pyrazol-3-ylmethyl]-piperidin-4-yl}-3,4-dihydro-1H-quinazolin-2-one]	650 nM	–
Cc1c(CN2CCC(n3c(=O)n(C)c4ccccc43)CC2)nc(-c2ccc(C(F)(F)F)cc2)n1C [Example 70, 1-{1-[1,5-Dimethyl-2-(4-trifluoromethyl-phenyl)-1H-imidazol-4-ylmethyl]-piperidin-4-yl}-3-methyl-1,3-dihydro-benzoimidazol-2-one]	245 nM	–
Cc1c(CN2CCC(N3Cc4ccccc4NC3=O)CC2)nc(-c2ccc(C(F)(F)F)cc2)n1C [Example 71, 3-{1-[1,5-Dimethyl-2-(4-trifluoromethyl-phenyl)-1H-imidazol-4-ylmethyl]-piperidin-4-yl}-3,4-dihydro-1H-quinazolin-2-one]	84 nM	–
Cc1[nH]c(-c2ccc(S(=O)(=O)C(F)(F)F)cc2)nc1CN1CCC(N2Cc3ccccc3NC2=O)CC1 [Example 72, 3-{1-[5-Methyl-2-(4-trifluoromethanesulfonyl-phenyl)-1H-imidazol-4-ylmethyl]-piperidin-4-yl}-3,4-dihydro-1H-quinazolin-2-one]	24 nM	–
Cc1[nH]c(-c2ccc(S(C)(=O)=O)cc2)nc1CN1CCC(N2Cc3ccccc3NC2=O)CC1 [Example 74, 3-{1-[2-(4-Methanesulfonyl-phenyl)-5-methyl-1H-imidazol-4-ylmethyl]-piperidin-4-yl}-3,4-dihydro-1H-quinazolin-2-one]	94 nM	–
